Assay results taken from US20260077277A1, “DILUTABLE COMPOSITIONS AND PROCESSES FOR EXTRACTING AND REFINING POORLY WATER-SOLUBLE POLAR OILS FROM BIOMASS” (priority 2022, published 2026).

Columns and labels:
[1] = cited from earlier work
[2] = characteristic curvature (Cc), HLD framework; type: physicochemical; conditions: obtained following procedure of Nouraei et al. (WO 2022/140843)

Row | Compound | water solubility [1] | characteristic curvature (Cc) [2]
1 | C=CCc1ccc(O)c(OC)c1 [Eugenol, eugenol] | 0.14 wt % | 
2 | C=C(C)[C@@H]1CCC(C)=C[C@H]1c1c(O)cc(CCCCC)cc1O [CBD, cannabidiol] | 0.0013 wt % | 
3 | CCCCCc1cc(O)c2c(c1)OC(C)(C)[C@@H]1CCC(C)=C[C@@H]21 [THC, tetrahydrocannabinol] |  | +2.7
